Assay results reported in patent US7803810B2, “Inhibitors” (Probiodrug AG, priority 2007, dated 2010).

Biological target: glutaminyl cyclase (QC) (Homo sapiens, UniProt Q16769)
Assay: QC inhibitor assay (fluorometric / spectrophotometric QC activity assays with inhibitor added)
Format: biochemical
Details: QC inhibition, 30° C.; for Ki: fit to competitive inhibition
Experimental: All measurements were performed with a BioAssay Reader HTS-7000Plus for microplates (Perkin Elmer) at 30° C. QC activity was evaluated fluorometrically using […]. The samples consisted of 0.2 mM fluorogenic substrate, 0.25 U pyroglutamyl aminopeptidase (Unizyme, Horsholm, Denmark) in 0.2 M Tris/HCl, pH 8.0 containing 20 mM EDTA and an appropriately diluted aliquot of QC in a final volume of 250 μl. Excitation/emission wavelengths were 320/410 nm. The assay reactions were initiated by addition of glutaminyl cyclase. QC activity was determined from a standard curve of β-naphthylamine under assay conditions. One unit is defined as the amount of QC catalyzing the formation of 1 μmol pGlu-βNA from H-Gln-βNA per minute under the described conditions.
In a second fluorometric assay, QC was activity determined using H-Gln-AMC as substrate. Reactions were carried out at 30° C. utilizing the NOVOStar reader for microplates (BMG labtechnologies). The samples consisted of varying concentrations of the fluorogenic substrate, 0.1 U pyroglutamyl aminopeptidase (Qiagen) in 0.05 M Tris/HCl, pH 8.0 containing 5 mM EDTA and an appropriately diluted aliquot of QC in a final volume of 250 μl. Excitation/emission wavelengths were 380/460 nm. The assay reactions were initiated by addition of glutaminyl cyclase. QC activity was determined from a standard curve of 7-amino-4-methylcoumarin under assay conditions. The kinetic data were evaluated using GraFit software.
This novel assay was used to determine the kinetic parameters for most of the QC substrates. […] Samples consisted of the respective QC substrate, 0.3 mM NADH, 14 mM α-Ketoglutaric acid and 30 U/ml glutamate dehydrogenase in a final volume of 250 μl. Reactions were started by addition of QC and persued by monitoring of the decrease in absorbance at 340 nm for 8-15 min.
The initial velocities were evaluated and the enzymatic activity was determined from a standard curve of ammonia under assay conditions. All samples were measured at 30° C., using either the […]luor Plus or the Sunrise (both from TECAN) reader for microplates. Kinetic data was evaluated using GraFit software.
For inhibitor testing, the sample composition was the same as described above, except of the putative inhibitory compound added. For a rapid test of QC-inhibition, samples contained 4 mM of the respective inhibitor and a substrate concentration at 1 KM. For detailed investigations of the inhibition and determination of Ki-values, influence of the inhibitor on the auxiliary enzymes was investigated first. […] The inhibitory constant was evaluated by fitting the set of progress curves to the general equation for competitive inhibition using GraFit software.

Chain of glutaminyl cyclase (QC) (Q16769 29-361): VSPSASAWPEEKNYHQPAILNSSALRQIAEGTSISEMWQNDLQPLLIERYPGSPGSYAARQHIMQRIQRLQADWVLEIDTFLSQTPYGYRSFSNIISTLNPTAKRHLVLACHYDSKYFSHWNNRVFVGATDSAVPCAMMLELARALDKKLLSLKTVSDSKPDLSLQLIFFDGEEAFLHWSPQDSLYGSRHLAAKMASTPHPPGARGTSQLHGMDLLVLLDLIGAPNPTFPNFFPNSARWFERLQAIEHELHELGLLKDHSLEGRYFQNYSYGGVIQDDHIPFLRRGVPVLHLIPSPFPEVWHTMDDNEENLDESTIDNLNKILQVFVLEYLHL

Work on `CCCCc1cccn2cncc12` [Example 1, 8-butylH-imidazo[1,5-a]pyridine] yielded an IC50 of 13.2 µM and a Ki of 3.7 µM.
Work on `c1ccc(Cc2cccn3cncc23)cc1` [Example 2, 8-benzylH-imidazo[1,5-a]pyridine] yielded an IC50 of 18.9 µM and a Ki of 5.5 µM.
For `CC(C)Cc1cccn2cncc12` [Example 3, 8-isobutylH-imidazo[1,5-a]pyridine], the IC50 was 20 µM and the Ki was 3.7 µM.
In the case of `c1ccc(-c2cccn3cncc23)cc1` [Example 4, 8-phenylH-imidazo[1,5-a]pyridine], the IC50 is reported as 8.22 µM and the Ki is reported as 1.3 µM.
In the case of `Fc1ccccc1-c1cccn2cncc12` [Example 5, 8-(2-fluorophenyl)H-imidazo[1,5-a]pyridine], the IC50 is reported as 20.6 µM and the Ki is reported as 3.14 µM.
With `Fc1cccc(-c2cccn3cncc23)c1` [Example 6, 8-(3-fluorophenyl)H-imidazo[1,5-a]pyridine] the IC50 was 9.71 µM and the Ki was 2.02 µM.
`Fc1ccc(-c2cccn3cncc23)cc1` [Example 7, 8-(4-fluorophenyl)H-imidazo[1,5-a]pyridine] was tested, and the IC50 was 10.6 µM and the Ki was 1.87 µM.
`Clc1ccccc1-c1cccn2cncc12` [Example 8, 8-(2-chlorophenyl)H-imidazo[1,5-a]pyridine] gave an IC50 of 47.7 µM and a Ki of 15.2 µM.
`Clc1cccc(-c2cccn3cncc23)c1` [Example 9, 8-(3-chlorophenyl)H-imidazo[1,5-a]pyridine] gave an IC50 of 17.2 µM and a Ki of 2.25 µM.
In the case of `Clc1ccc(-c2cccn3cncc23)cc1` [Example 10, 8-(4-chlorophenyl)H-imidazo[1,5-a]pyridine], the IC50 is reported as 5.51 µM and the Ki is reported as 1.11 µM.
`COc1ccccc1-c1cccn2cncc12` [Example 12, 8-(2-methoxyphenyl)H-imidazo[1,5-a]pyridine] showed an IC50 of 13.6 µM and a Ki of 3.98 µM.
`COc1cccc(-c2cccn3cncc23)c1` [Example 13, 8-(3-methoxyphenyl)H-imidazo[1,5-a]pyridine] was tested, and the IC50 was 6.19 µM and the Ki was 1.1 µM.
In the case of `c1ccc(COc2ccccc2-c2cccn3cncc23)cc1` [Example 15, 8-(2-(benzyloxy)phenyl)H-imidazo[1,5-a]pyridine], the IC50 is reported as 23.6 µM and the Ki is reported as 5.38 µM.
`c1ccc(COc2cccc(-c3cccn4cncc34)c2)cc1` [Example 16, 8-(3-(benzyloxy)phenyl)H-imidazo[1,5-a]pyridine] showed an IC50 of 7.81 µM and a Ki of 1.48 µM.
In the case of `c1ccc(COc2ccc(-c3cccn4cncc34)cc2)cc1` [Example 17, 8-(4-(benzyloxy)phenyl)H-imidazo[1,5-a]pyridine], the IC50 is reported as 4.36 µM and the Ki is reported as 0.75 µM.
`c1ccc(-c2ccccc2-c2cccn3cncc23)cc1` [Example 18, 8-(biphen-2-yl)H-imidazo[1,5-a]pyridine] gave an IC50 of 36.5 µM and a Ki of 11 µM.
`c1ccc(-c2cccc(-c3cccn4cncc34)c2)cc1` [Example 19, 8-(biphen-3-yl)H-imidazo[1,5-a]pyridine] showed an IC50 of 10.9 µM and a Ki of 2.51 µM.
In the case of `c1ccc(-c2ccc(-c3cccn4cncc34)cc2)cc1` [Example 20, 8-(biphen-4-yl)H-imidazo[1,5-a]pyridine], the IC50 is reported as 20.6 µM and the Ki is reported as 2.13 µM.
`FC(F)(F)Oc1ccccc1-c1cccn2cncc12` [Example 21, 8-(2-(trifluoromethoxy)phenyl)H-imidazo[1,5-a]pyridine] was tested, and the IC50 was 36.5 µM and the Ki was 14.5 µM.
`CCOc1ccc(-c2cccn3cncc23)cc1` [Example 22, 8-(4-ethoxyphenyl)H-imidazo[1,5-a]pyridine] showed an IC50 of 14.3 µM and a Ki of 1.89 µM.
In the case of `c1cc(-c2ccc3c(c2)OCO3)c2cncn2c1` [Example 23, 8-(benzo[d][1,3]dioxol-6-yl)H-imidazo[1,5-a]pyridine], the IC50 is reported as 29.2 µM and the Ki is reported as 3.46 µM.
For `COc1ccc(-c2cccn3cncc23)cc1C` [Example 24, 8-(4-methoxy-3-methylphenyl)H-imidazo[1,5-a]pyridine], the IC50 was 26.4 µM and the Ki was 2.66 µM.
`c1cc(-c2ccc3c(c2)OCCO3)c2cncn2c1` [Example 25, 8-(2,3-dihydrobenzo[b][1,4]dioxin-7-yl)H-imidazo[1,5-a]pyridine] was tested, and the IC50 was 9.17 µM and the Ki was 1.19 µM.
Molecule `COc1ccc(-c2cccn3cncc23)cc1OC` [Example 26, 8-(3,4-dimethoxyphenyl)H-imidazo[1,5-a]pyridine] has an IC50 of 15.4 µM and a Ki of 9.38 µM.
In the case of `COc1c(C)cc(-c2cccn3cncc23)cc1C` [Example 27, 8-(4-methoxy-3,5-dimethylphenyl)H-imidazo[1,5-a]pyridine], the IC50 is reported as 27.4 µM and the Ki is reported as 4.92 µM.
